24 molecules from US9321718B2 (CHROMA THERAPEUTICS LTD., priority 2010, dated 2016) can be followed below.

Where two headings read alike, the source gives them in different places. A value given as a limit tells only on which side of the number the result lay.

For test [1], the target named is T1, human recombinant his-tagged HSP90α (Homo sapiens, UniProt P07900).
T1 construct: purchased Prospec Technogene #HSP90
In words: HSP90 enzyme assay (HTRF, competition with biotinylated Geldanamycin). The note with it: IC50 range; read-out: Enzyme Assay. The test is classed as binding. The source says:
An HTRF (homogeneous time resolved fluorescence) assay is used to measure the interaction of the compounds with HSP90. The assay measures binding of biotinylated Geldanamycin (bio-GM; Biomol, #EI-341, lot: A9199a) to human recombinant his-tagged HSP90α (HSP90; Prospec Technogene, #HSP90, lot: 260HSP9001). A signal is generated by fluorescence resonance energy transfer from an Europium-cryptate labeled anti-his antibody (anti-his-K; Cisbio International, #61HISKLA, lot: 33V) via the HSP90-GM-biotin complex to a fluorescence acceptor (allophycocyanin) linked to streptavidin (SA-XL; Cisbio International, #610SAXLB, lot: 089).
Unlabeled GM or compounds compete with the bio-GM for binding to HSP90 resulting in reduced fluorescence energy transfer/assay signal.
A preformed (1 hour incubation) complex of HSP90 with the anti-his-K is added to the compound solution in a 384 well microplate (Corning, #3710) and incubated for 15 minutes. A preformed (1 hour incubation) complex of bio-GM with the SA-XL is added to the wells and incubated for 20 hours. All incubations are performed at room temperature. The final assay volume is 50 μl/well. The final concentrations in the assay are: 50 mM Hepes pH 7.3, 50 mM NaCl, 100 mM KF, 1 mM EDTA, 1 mM DTT, 0.1% Triton-X-100, […] HSP90, 40 nM SA-XL, 40 nM bio-GM. Test compounds are dissolved in DMSO, prediluted in assay buffer and tested at a final concentration between 5000 nM and 0.3 nM. The resulting DMSO concentration is 0.5% and included in all controls. High controls are without test compounds, low controls without test compounds, without HSP90 and without bio-GM. As a reference inhibitor unlabeled GM is used in the same concentrations as the test compounds.
Inhibition is calculated compared to the assay controls using an Excel spreadsheet (Microsoft). IC50 values are calculated by non-linear least squares fitting to the standard dose-response model using GraphPad Prism (GraphPad Software Inc).

Test [2] has as its system TNFα release from LPS stimulated THP-1 (hCE-1 +ve) cells. In words: LPS-stimulation of THP-1 cells (TNF-α release). The test is classed as cell-based, human. The conditions noted are these: IC50 range, TNF-α after LPS 1 μg/ml, 6 hours, read-out: THP-1 Assay. The procedure: THP-1 cells are plated in […] at a density of 4×10^4 cells/well in V-bottomed 96 well tissue culture treated plates and incubated at 37° C. in 5% CO2 for 16 hours. 2 Hours after the addition of the inhibitor in 100 μl of tissue culture media, the cells are stimulated with LPS (E. Coli strain 005:B5, Sigma) at a final concentration of 1 μg/ml and incubated at 37° C. in 5% CO2 for 6 hours. TNF-α levels are measured from cell-free supernatants by sandwich ELISA (R&D Systems #QTA00B).

As to `CC(C)C[C@H](NC1CCN(C(=O)c2cc(C(C)C)c(O)cc2O)CC1)C(=O)OC(C)(C)C` [Example 6, tert-butyl N-(1-{[2,4-dihydroxy-5-(propan-2-yl)phenyl]carbonyl}piperidin-4-yl)-L-leucinate], the IC50 is under 100 nM in test [1] and over 1000 nM in test [2] (Homo sapiens, THP-1).

For the molecule `CC(C)C[C@H](NC1CCCN(C(=O)c2cc(C(C)C)c(O)cc2O)C1)C(=O)OC1CCCC1` (stereo partly drawn) [Example 7, cyclopentyl N-(1-{[2,4-dihydroxy-5-(propan-2-yl)phenyl]carbonyl}piperidin-3-yl)-L-leucinate], the IC50 is 100 to 1000 nM in test [1] and over 1000 nM in test [2] (Homo sapiens, THP-1).

In the case of `CC(C)c1cc(C(=O)N2CCC(N[C@@H](C)C(=O)OC(C)(C)C)CC2)c(O)cc1O` [Example 8, tert-butyl N-(1-{[2,4-dihydroxy-5-(propan-2-yl)phenyl]carbonyl}piperidin-4-yl)-L-alaninate], the IC50 in test [1] was under 100 nM; in test [2] (Homo sapiens, THP-1), over 1000 nM.

Turning to `CC(C)c1cc(C(=O)N2CCC(N[C@@H](COC(C)(C)C)C(=O)OC(C)(C)C)CC2)c(O)cc1O` [Example 11, tert-butyl O-tert-butyl-N-(1-{[2,4-dihydroxy-5-(propan-2-yl)phenyl]carbonyl}piperidin-4-yl)-L-serinate], the IC50 in test [1] was under 100 nM; in test [2] (Homo sapiens, THP-1) it was over 1000 nM.

Consider `CC(C)C[C@@H](NC1CCN(C(=O)c2cc(C(C)C)c(O)cc2O)CC1)C(=O)OC1CCCC1` [Example 12, cyclopentyl N-(1-{[2,4-dihydroxy-5-(propan-2-yl)phenyl]carbonyl}piperidin-4-yl)-D-leucinate], for which the IC50 in test [1] was under 100 nM; in test [2] (Homo sapiens, THP-1) it was over 1000 nM.

For `CC(C)c1cc(C(=O)N2CCC(N[C@H](C(=O)OC3CCCC3)C3CCCCC3)CC2)c(O)cc1O` [Example 14, cyclopentyl (2S)-cyclohexyl[(1-{[2,4-dihydroxy-5-(propan-2-yl)phenyl]carbonyl}piperidin-4-yl)amino]ethanoate], the IC50 in test [1] is 100 to 1000 nM; in test [2] (Homo sapiens, THP-1), over 1000 nM.

Consider `CC(C)c1cc(C(=O)N2CCC(N[C@@H](Cc3ccccc3)C(=O)OC(C)(C)C)CC2)c(O)cc1O` [Example 16, tert-butyl N-(1-{[2,4-dihydroxy-5-(propan-2-yl)phenyl]carbonyl}piperidin-4-yl)-L-phenylalaninate], for which the IC50 in test [1] was under 100 nM; in test [2] (Homo sapiens, THP-1), over 1000 nM.

`CC(C)c1cc(C(=O)N2CCC(N[C@@H](CO)C(=O)OC3CCCC3)CC2)c(O)cc1O` [Example 18, cyclopentyl N-(1-{[2,4-dihydroxy-5-(propan-2-yl)phenyl]carbonyl}piperidin-4-yl)-L-serinate]: the IC50 in test [1] was under 100 nM; in test [2] (Homo sapiens, THP-1), 100 to 1000 nM.

Turning to `CC(C)C[C@@H](NC1CCN(C(=O)c2cc(C(C)C)c(O)cc2O)CC1)C(=O)OC(C)(C)C` [Example 19, tert-butyl N-(1-{[2,4-dihydroxy-5-(propan-2-yl)phenyl]carbonyl}piperidin-4-yl)-D-leucinate], the IC50 is under 100 nM in test [1] and over 1000 nM in test [2] (Homo sapiens, THP-1).

With `CC(C)C[C@H](NCC1CCN(C(=O)c2cc(C(C)C)c(O)cc2O)CC1)C(=O)OC(C)(C)C` [Example 24, tert-butyl N-[(1-{[2,4-dihydroxy-5-(propan-2-yl)phenyl]carbonyl}piperidin-4-yl)methyl]-L-leucinate], the IC50 in test [1] was under 100 nM; in test [2] (Homo sapiens, THP-1), over 1000 nM.

With `CC(C)c1cc(C(=O)N2CCC(CN[C@@H](Cc3ccccc3)C(=O)OC(C)(C)C)CC2)c(O)cc1O` [Example 25, tert-butyl N-[(1-{[2,4-dihydroxy-5-(propan-2-yl)phenyl]carbonyl}piperidin-4-yl)methyl]-L-phenylalaninate], the IC50 was under 100 nM in test [1] and over 1000 nM in test [2] (Homo sapiens, THP-1).

For the molecule `CC(C)c1cc(C(=O)N2CCC(CN[C@@H](C)C(=O)OC(C)(C)C)CC2)c(O)cc1O` [Example 26, tert-butyl N-[(1-{[2,4-dihydroxy-5-(propan-2-yl)phenyl]carbonyl}piperidin-4-yl)methyl]-L-alaninate], the IC50 is under 100 nM in test [1] and over 1000 nM in test [2] (Homo sapiens, THP-1).

In the case of `CC(C)C[C@@H](NCC1CCN(C(=O)c2cc(C(C)C)c(O)cc2O)CC1)C(=O)OC(C)(C)C` [Example 27, tert-butyl N-[(1-{[2,4-dihydroxy-5-(propan-2-yl)phenyl]carbonyl}piperidin-4-yl)methyl]-D-leucinate], the IC50 was under 100 nM in test [1] and over 1000 nM in test [2] (Homo sapiens, THP-1).

As to `CC(C)c1cc(C(=O)N2CCC(CN[C@H](C(=O)OC3CCCC3)C3CCCCC3)CC2)c(O)cc1O` [Example 30, cyclopentyl (2S)-cyclohexyl{[(1-{[2,4-dihydroxy-5-(propan-2-yl)phenyl]carbonyl}piperidin-4-yl)methyl]amino}ethanoate], the IC50 in test [1] is 100 to 1000 nM; in test [2] (Homo sapiens, THP-1), over 1000 nM.

As to `CC(C)c1cc(C(=O)N2CCC(CN[C@@H](COC(C)(C)C)C(=O)OC(C)(C)C)CC2)c(O)cc1O` [Example 35, tert-butyl O-tert-butyl-N-[(1-{[2,4-dihydroxy-5-(propan-2-yl)phenyl]carbonyl}piperidin-4-yl)methyl]-L-serinate], the IC50 in test [1] is under 100 nM; in test [2] (Homo sapiens, THP-1) it was over 1000 nM.

On to `CC(C)c1cc(C(=O)N2CCC(CN[C@@H](CO)C(=O)OC(C)(C)C)CC2)c(O)cc1O` [Example 37, tert-butyl N-[(1-{[2,4-dihydroxy-5-(propan-2-yl)phenyl]carbonyl}piperidin-4-yl)methyl]-L-serinate], for which the IC50 was under 100 nM in test [1] and 100 to 1000 nM in test [2] (Homo sapiens, THP-1).

For the molecule `CC(C)c1cc(C(=O)N2CCC(CCN[C@@H](C)C(=O)OC3CCCC3)CC2)c(O)cc1O` [Example 39, cyclopentyl N-[2-(1-{[2,4-dihydroxy-5-(propan-2-yl)phenyl]carbonyl}piperidin-4-yl)ethyl]-L-alaninate], the IC50 was under 100 nM in test [1] and under 100 nM in test [2] (Homo sapiens, THP-1).

For the molecule `CC(C)C[C@H](NCCC1CCN(C(=O)c2cc(C(C)C)c(O)cc2O)CC1)C(=O)OC(C)(C)C` [Example 42, tert-butyl N-[2-(1-{[2,4-dihydroxy-5-(propan-2-yl)phenyl]carbonyl}piperidin-4-yl)ethyl]-L-leucinate], the IC50 is under 100 nM in test [1] and 100 to 1000 nM in test [2] (Homo sapiens, THP-1).

Regarding `CC(C)c1cc(C(=O)N2CCC(CCN[C@H](C(=O)OC3CCCC3)C(C)C)CC2)c(O)cc1O` [Example 46, cyclopentyl N-[2-(1-{[2,4-dihydroxy-5-(propan-2-yl)phenyl]carbonyl}piperidin-4-yl)ethyl]-L-valinate], the IC50 was under 100 nM in test [1] and over 1000 nM in test [2] (Homo sapiens, THP-1).

In the case of `CC(C)c1cc(C(=O)N2CCC(CCN[C@@H](CO)C(=O)OC3CCCC3)CC2)c(O)cc1O` [Example 47, cyclopentyl N-[2-(1-{[2,4-dihydroxy-5-(propan-2-yl)phenyl]carbonyl}piperidin-4-yl)ethyl]-L-serinate], the IC50 is under 100 nM in test [1] and 100 to 1000 nM in test [2] (Homo sapiens, THP-1).

Turning to `CC(C)c1cc(C(=O)N2CCC(CCN[C@H](C(=O)OC3CCCC3)C3CCCCC3)CC2)c(O)cc1O` [Example 48, cyclopentyl (2S)-cyclohexyl{[2-(1-{[2,4-dihydroxy-5-(propan-2-yl)phenyl]carbonyl}piperidin-4-yl)ethyl]amino}ethanoate], the IC50 in test [1] is 100 to 1000 nM; in test [2] (Homo sapiens, THP-1) it was over 1000 nM.

For `CC(C)c1cc(C(=O)N2CCC(CCN[C@H](C(=O)OC3CCCC3)c3ccccc3)CC2)c(O)cc1O` [Example 51, cyclopentyl (2S)-{[2-(1-{[2,4-dihydroxy-5-(propan-2-yl)phenyl]carbonyl}piperidin-4-yl)ethyl]amino}(phenyl)ethanoate], the IC50 was under 100 nM in test [1] and 100 to 1000 nM in test [2] (Homo sapiens, THP-1).

As to `CC(C)C[C@H](NCCCNCC1CCN(C(=O)c2cc(C(C)C)c(O)cc2O)CC1)C(=O)OC1CCCC1` [Example 126], the IC50 in test [1] was under 100 nM; in test [2] (Homo sapiens, THP-1), over 1000 nM.

As to “cyclopentyl N-[(1-{[2,4-dihydroxy-5-(propan-2-yl)phenyl]carbonyl}piperidin-4-yl)methyl]-L-valinate [Example 29]”, the IC50 in test [1] is under 100 nM; in test [2], over 1000 nM.
